Values after ≈ are worked out from the molar mass of the structure shown.
How the values were obtained:
Aqueous solubility = assay type: physicochemical; settings: aqueous buffer, kinetic from dmso stock, room temperature, 2% DMSO
Description: The aqueous […] was estimated by adding 10 µL of eurycomanone stock solution (10 mM) to 490 µL of aqueous buffer at pH 5.4, pH 7.4 and DMSO in triplicates in deep-well plates. […] The plate was kept on a shaker (300 rpm) at room temperature for 16 h. The plate was then centrifuged at 25 °C, 4000 rpm for 25 min. The supernatant was transferred and analysed using LC-MS/MS.
Peak area 1 = peak area of the compound in 2% DMSO at the different pH levels.
Peak area 2 = peak area of the compound in 100% DMSO.

[1] = Chemical stability in simulated gastrointestinal fluids; assay type: physicochemical; settings: GSF (pH 2), FESSIF (pH 5.0), FASSIF (pH 6.5)
Description: The chemical stability of eurycomanone was estimated in gastric simulated fluid (GSF), pH 2; fasted simulated intestinal fluid (FASSIF), pH 6.5; fed simulated intestinal fluid (FESSIF), pH 5.0; and in 150 mM NaHCO3 at pH 9.2. Eurycomanone (3 µL) at 5 mM was added to 297 µL of the respective buffers. The mixture (100 µL) was added to 100 µL of ACN at time points 1 and 3 h and sent for LC-MS/MS analysis.

[2] = Parallel artificial membrane permeability assay (PAMPA); assay type: in vitro ADME; settings: pH 7.4, 18 h, room temperature, read-out: permeation through artificial membrane (PAMPA)
Description: Eurycomanone was added to Pion buffer (Pion Inc., Billerica, MA, USA) pH 7.4 to make a 10 µM working solution. Five microlitres of the lipid mix was applied on the membrane and allowed to dry for 10 min. The working solution (200 µL) was added to the donor plate and Pion buffer (200 µL) were added to the receiver plate. The plate was kept in a moist chamber and left for 18 h at room temperature. The solution from both the donor and receiver plate and the working solution was analysed using LC-MS/MS. This test was carried out in triplicates using propranolol, atenolol, and carbamazepine as standards. The test concentration for eurycomanone is […].

[3] = Caco-2 cell permeability assay; assay type: in vitro ADME; settings: human
Description: The Caco-2 assay was carried out after seeding the cells onto the membrane to form a confluent monolayer in 21 days. The media is removed from apical (A) and basolateral (B) chambers and the membrane is washed with HBSS buffer. Eurycomanone (10 µM, 200 µL) was added to the A compartment (which represents the intestinal lumen), and buffer (300 µL) was added to the B compartment (representing the blood), and vice versa. The plate was kept in a shaking incubator (37 °C) for 1 h. The amount of eurycomanone that had permeated across the cells was measured by LC-MS/MS, and the apparent permeability (Papp) values and efflux ratio were calculated. The expression of P-glycoprotein (P-gp) by differentiated Caco-2 cells was confirmed by measuring the Papp value and efflux ratio of vinblastine with and without the presence of a competing P-gp substrate, cyclosporine A. Eurycomanone was also measured with the presence of cyclosporine A to investigate whether eurycomanone may be transported via P-gp transporters.

[4] = Liver microsome metabolic stability, rat; assay type: in vitro ADME; settings: rat liver microsomes
Description: The liver microsome stability assay of eurycomanone was estimated using phase I and phase II enzymes in five types of microsomes (mice, rat, dog, monkey, and human). Eurycomanone at 1 mM (20 µL), microsomes at 0.3 mg/mL (20 µL), and 10 mg/mL of alamethicin in 1:1 DMSO and methanol (20 µL) were preincubated at 37 °C for 10 min. The cofactor, 5 mM UDPGA (20 µL), and 1 mM NADPH (20 µL) were added to make the final assay volume of 100 µL. At timepoints 0, 15, 30, 45, 60, and 90 min, […] of the reaction mixture is taken out and added to the stop solution. The supernatants (10,000 rpm, 10 min, 4 °C) were collected and analysed using LC-MS/MS. The standards used for mice and rat liver microsomes were propranolol and dasatinib. The standards used with the dog and monkey liver microsomes were propranolol and midazolam, while the standards used with the human liver microsomes were propranolol and terfinadine.

Plasma stability, dog = assay type: in vitro ADME; settings: 5 µM, 37 °C, up to 4 h
Description: (§1) The plasma stability was estimated by preparing 5 µM of eurycomanone in 600 µL plasma in triplicates. The plasma stability of eurycomanone was determined in five types of plasma (mice, rat, dog, monkey, and human). The reaction was kept at 37 °C and ACN (100 µL) was added at timepoints 0, 30 min, and 1, 2, and 4 h to the reaction mixture (100 µL). The supernatant (10,000 rpm, 10 min, 4 °C) was collected and analysed by LC-MS/MS. The standards (propantheline bromide and enalapril) were analysed in triplicates.

Plasma stability, monkey = assay type: in vitro ADME; settings: 5 µM, 37 °C, up to 4 h, compared with human, rat and dog plasma
Description: as §1

Plasma stability, mice = assay type: in vitro ADME; settings: 5 µM, 37 °C, up to 4 h, compared with human, rat and dog plasma
Description: as §1

[5] = Plasma protein binding (rapid equilibrium dialysis), rat; assay type: in vitro ADME; settings: rat, plasma, pH 7.4, rat plasma
Description: (§2) The ability of eurycomanone to bind plasma protein was analysed in five types of plasma (mice, rat, dog, monkey, and human). Each type of plasma was spiked with eurycomanone (1 mM) to make the 10 µM test concentration of eurycomanone in the plasma. Equilibrium dialysis buffer (500 µL) at pH 7.4 was added to the right chamber in rapid equilibrium dialysis (RED), while the spiked plasma (300 µL) was added to the left chamber. The Teflon base plate was covered with aluminium foil and left on the shaking incubator at 37 °C for 4 h. The matrix was balanced by mixing 100 µL of the equilibrium buffer with the spiked plasma from the left chamber in RED before adding the stop solution (350 µL) to precipitate out the protein. The supernatant (10,000 rpm, 10 min, 4 °C) was collected and analysed using LC-MS/MS. The standards (propranolol, warfarin, and acebutalol) were analysed in duplicates.

plasma protein = experiment: as above; assay type: in vitro ADME; settings: rat plasma, 10 µM, 37 °C, 4 h
Description: as §2

[6] = Plasma protein binding (rapid equilibrium dialysis), mice; assay type: in vitro ADME; settings: mouse, pH 7.4, 37 °C, read-out: percentage bound to plasma protein (converted)
Description: as §2

[7] = Plasma protein binding (rapid equilibrium dialysis), dog; assay type: in vitro ADME; settings: pH 7.4, 37 °C, read-out: percentage bound to plasma protein (converted)
Description: as §2

## C=C1[C@@H](O)[C@]2(O)OC[C@]34[C@H]2[C@@]2(C)[C@H](O)C(=O)C=C(C)[C@@H]2C[C@H]3OC(=O)[C@H](O)[C@@]14O [Eurycomanone]
Aqueous solubility; pH 5.4, 16 h
  solubility at 16 h: 206 µM (≈ 83.9 µg/mL)
Aqueous solubility; pH 7.4, 16 h
  solubility at 16 h: 205 µM (≈ 83.9 µg/mL)
[1]
  chemical stability (percentage remaining after 3 h of incubation): high stability
[1]; listed as eurycomanone
  chemical stability (percentage remaining after 3 h of incubation): chemically stable across all pH values tested
[2]
  Papp at 18 h, 25 µM: 0.78 ×10⁻⁶ cm/s
[3]; Caco-2, Caco-2, A to B
  Papp at 1 h, 10 µM: 0.45 ×10⁻⁶ cm/s
[3]; Caco-2, Caco-2, B to A
  Papp at 1 h, 10 µM: 0.73 ×10⁻⁶ cm/s
[3]; Caco-2, Caco-2, read-out: Efflux Ratio
  efflux ratio at 1 h, 10 µM: < 2
[4]
  Half-life (t1/2): >1.5 h
  half-life at 200 µM: > 90 min
[4]; read-out: Intrinsic clearance (Clint)
  CLint scaled at 200 µM: 83.2 mL/min/kg
Plasma stability, dog
  plasma stability: highly stable
Plasma stability, monkey
  plasma stability: slightly lower
Plasma stability, mice
  plasma stability: slightly lower
[5]; 10 µM, 37 °C, 4 h, read-out: percentage bound to plasma protein (converted)
  fraction unbound at 4 h, 10 µM: 0.699
[5]; read-out: unbound fraction
  fraction unbound at 4 h, 10 µM: 0.7
Plasma protein
  percentage bound to plasma protein: 30%
[6]
  fraction unbound at 4 h, 10 µM: 0.784
[7]
  fraction unbound at 4 h, 10 µM: 0.322

Source: article PMC6161288, “Bioavailability of Eurycomanone in Its Pure Form and in a Standardised Eurycoma longifolia Water Extract” (Pharmaceutics, 2018)
